Reference: ChEMBL document CHEMBL1123356, “Plant antitumor agents. 22. Isolation of 11-hydroxycamptothecin from Camptotheca acuminata Decne: total synthesis and biological activity” (1986)

How the values were obtained:
Assay type in all cases: functional, Mus musculus
L1210 [1] = test: Compound was tested for active dose in L1210 Leukemia assay; 10-40 mg/kg
L1210 [2] = test: Compound was tested for maximum percentage T/C in L1210 Leukemia assay at 40 mg/kg (no cures out of 6)
L1210 [3] = test: Compound was tested for toxic dose in L1210 Leukemia assay
L1210 [4] = test: Compound was tested for active dose in L1210 Leukemia assay; 7.5-60 mg/kg
L1210 [5] = test: Compound was tested for maximum percentage T/C in L1210 Leukemia assay at 60 mg/kg (3 cures out of 6)
L1210 [6] = test: Compound was tested for active dose in L1210 Leukemia assay; 2-8 mg/kg
L1210 [7] = test: Compound was tested for maximum percentage T/C in L1210 Leukemia assay at 8 mg/kg (no cures out of 6)

Compound	Active dose (L1210 [1]) [mg/kg]	T/C (L1210 [2]) [%]	Toxic dose (L1210 [3]) [mg/kg]	Active dose (L1210 [4]) [mg/kg]	T/C (L1210 [5]) [%]	Active dose (L1210 [6]) [mg/kg]	T/C (L1210 [7]) [%]
CC[C@@](O)(C(=O)[O-])c1cc2n(c(=O)c1CO)Cc1cc3ccccc3nc1-2.[Na+]	10	178	80				
CC[C@@]1(O)C(=O)OCc2c1cc1n(c2=O)Cc2cc3ccc(O)cc3nc2-1 (racemic)				7.5	357		
CC[C@@]1(O)C(=O)OCc2c1cc1n(c2=O)Cc2cc3ccccc3nc2-1 [CAMPTOTHECIN]			16			2	164
